Source: EP0170180A1, “Substituted guanidinobenzoic-acid phenyl esters, process for their production and their use as pharmaceutical preparations” (SCHERING AKTIENGESELLSCHAFT, priority 1984, dated 1986)
Where a name gives a salt, the structure may show the parent alone.

Legend:
Humanakrosin [1] = biological target: T1, Humanakrosin (Homo sapiens, UniProt P10323); experiment: Gelatinolysis test: acrosin inhibition in intact human spermatozoa (halo formation, semiquantitative); format: cell-based; conditions: Humansperma preincubated with inhibitor
T1 construct: endogenous in cells; host or cells: intact human spermatozoa (Humansperma)
Excerpt: Dieser Test ist ebenfalls als Bestandteil des Primärscreenings anzusehen. Für die erwünschte kontrazeptive Wirkung eines Akrosininhibitors ist es - neben der eigentlichen Akrosinhemmung am isolierten Enzym - von essentieller Bedeutung, daß ein solcher Inhibitor in der Lage ist, das Plasmalemm und die äußere akrosomale Membran eines intakten Spermiums zu durchdringen, da Akrosin an der inneren akrosomalen Membran lokalisiert ist.
Als besonders geeignet für die Untersuchung dieser speziellen Fragestellung hat sich das Gelatinolyse-Modell nach P. Gaddum und R.Z. Blandau (Science 170: 749 - 751), modifiziert nach W.B. Schill (Int. J. Andrology 4: 25 - 38) und nach eigenen Ausarbeitungen erwiesen. Bei dieser Methode wird mit unbelichteten, fixierten und mit Methylenblau gefärbten Filmplatten für die Autoradiographie gearbeitet, deren Gelatineschicht durch die lytische Aktivität von Akrosin aufgelöst wird. Als Folge bilden sich um die Spermienköpfe gut sichtbare, weite Höfe (sog. Halo-Bildung/ Lysishof). Bei einer Hemmung von Akrosin unterbleibt die Ausbildung dieser Höfe.
Um die Penetrierfähigkeit eines erwiesenen Akrosininhibitors und damit die Hemmung von Akrosin am intakten Spermium zu untersuchen, wird Humansperma mit mehreren Konzentrationen des Inhibitors präinkubiert. […]

Maussperma = experiment: In vitro fertilisation (mouse); format: cell-based, Maus; conditions: for % Fertilisation: after 24 h; for Anzahl 2-Zellen-Embryos: counted after 24 h
Excerpt: Dieser Test erlaubt eine erste Überprüfung der kontrazeptiven Effektivität sowie eine Überprüfung des Wirkprinzips per se:
In einem Mediumtropfen nach Brinster, Whitten und Whittingham, der den Inhibitor enthält, werden zunächst die durch Superovulation gewonnenen Oocyten überführt. Anschließend wird ein Aliquot des unbehandelten Maussperma hinzupipettiert. Die Konzentrationen des Inhibitors werden so gewählt, daß keine Hemmung der Motilität vorliegt. 24 Stunden später wird die Anzahl der geteilten und nicht geteilten Oocyten und damit die Fertilitätsrate bestimmt.
Es wird also überprüft, ob der zu untersuchende Akrosininhibitor, appliziert in einem System, in dem es zum unmittelbaren Kontakt zwischen Oocyte und Spermium kommt, eine Fertilisation hemmen kann - ohne daß eine Hemmung der Motilität der Spermien vorliegt.

Humanakrosin [2] = biological target: T1, Humanakrosin; experiment: Acrosin (human) assay: inhibition of isolated human acrosin; format: biochemical; conditions: Substrat: Benzoyl-L-arginyleth.-ester; read-out: I50
Excerpt: Dieser Test stellt das eigentliche Primärscreening dar. Er gibt einen Anhaltspunkt über die inhibitorische Effektivität einer Verbindung am Enzym (Humanakrosin) selbst, erlaubt aber noch keine Aussage über die biologische Effektivität (d.h. Hemmung von Akrosin im intakten Spermium sowie kontrazeptive Wirksamkeit) der untersuchten Verbindungen.
Das durch eine saure Extraktion aus Humansperma gewonnene Enzym Akrosin wird mit verschiedenen Konzentrationen des potentiellen Inhibitors inkubiert, und es wird diejenige Konzentration bestimmt, die zu einer 50 %igen Hemmung der Akrosinaktivität führt. Die […] Akrosin spaltet physiologischerweise bevorzugt Arginin- und Lysin-Gruppen. Deshalb wird für die in vitro-Untersuchung zur Aktivitätsbestimmung von Akrosin ein Benzoyl-Arginin-Äthylester als Substrat verwendet.

Kaninchen = experiment: In vivo fertilisation (rabbit) after artificial insemination of preincubated sperm; conditions: sperm preincubated with 500 µg/ml, 36 h after insemination; for % geteilt: fertility rate; for geteilt: number of divided oocytes; for nicht geteilt: number of undivided oocytes
Excerpt: Dieser Test ermöglicht Aussagen zur kontrazeptiven Effektivität unter in-vivo-Bedingungen:
Kaninchensperma, das mit Hilfe einer künstlichen Vagina gewonnen wird, wird mit dem zu untersuchenden Akrosininhibitor präinkubiert. Anschließend werden zur Induktion einer Superovulation mit PMS (pregnant mare serum) vorbehandelte Kaninchenweibchen mit dem vorbehandelten Sperma artifiziell inseminiert. Zur Auslösung der […] erhalten sie abschließend HCG (human chorionic gonadotropin).
36 Stunden später werden die Tiere getötet, die Ovidukte und Uteri entnommen und gespült, um die frühen Embryonen bzw. ungeteilten Oocyten zu gewinnen und anhand deren Anzahl die Fertilisationsrate zu bestimmen.

T1 sequence (P10323 20-421): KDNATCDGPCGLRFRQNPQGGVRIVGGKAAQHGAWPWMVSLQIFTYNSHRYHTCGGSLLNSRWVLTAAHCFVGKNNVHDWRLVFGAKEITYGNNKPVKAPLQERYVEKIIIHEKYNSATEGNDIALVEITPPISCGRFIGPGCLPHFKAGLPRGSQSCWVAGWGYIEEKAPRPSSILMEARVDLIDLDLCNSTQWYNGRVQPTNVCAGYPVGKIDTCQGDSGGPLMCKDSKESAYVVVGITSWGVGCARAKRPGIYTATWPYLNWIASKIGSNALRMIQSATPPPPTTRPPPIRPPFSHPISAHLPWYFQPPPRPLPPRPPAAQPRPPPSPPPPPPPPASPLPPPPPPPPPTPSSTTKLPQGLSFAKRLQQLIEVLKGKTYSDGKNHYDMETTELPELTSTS

Row | Structure (SMILES) | Gelatinolyse: Hemmung der Akrosinaktivität (Humanakrosin [1]; 1 µg/ml) | Gelatinolyse: Hemmung der Akrosinaktivität (Humanakrosin [1]; 10 µg/ml) | % Fertilisation (Maussperma; 5 ug/ml) | Anzahl 2-Zellen-Embryos (Maussperma; 5 ug/ml) | IC50 (Humanakrosin [2]) | % geteilt (Kaninchen) | geteilt (Kaninchen) | nicht geteilt (Kaninchen) | % Fertilisation (Maussperma; 50 ug/ml) | Anzahl 2-Zellen-Embryos (Maussperma; 50 ug/ml)
1 | COC(=O)c1ccccc1OC(=O)c1ccc(NC(=N)N)cc1 [Verbindung 1, 4-Guanidinobenzoesäure-(2-methoxycarbonylphenyl)-ester Hydrochlorid, reference compound] | ++ bis +++ | + bis ++ | 78% | 195 | 733 nM | 51% | 88 | 83 |  | 
2 | N=C(N)Nc1ccc(C(=O)Oc2cccc(C(N)=O)c2)cc1 [Verbindung 6, 4-Guanidinobenzoesäure-(3-carbamoylphenyl)-ester Hydrochlorid] |  |  |  |  | 320 nM |  |  |  |  | 
3 | COC(=O)c1cccc(OC(=O)c2ccc(NC(=N)N)cc2)c1 [Verbindung 5, 4-Guanidinobenzoesäure-(3-methoxycarbonylphenyl)-ester Hydrochlorid] |  |  |  |  | 550 nM |  |  |  |  | 
4 | N#Cc1ccccc1OC(=O)c1ccc(NC(=N)N)cc1 [Verbindung 2, 4-Guanidinobenzoesäure-(2-cyanophenyl)-ester Hydrochlorid] |  |  | 59% | 134 | 40 nM | 1% | 2 | 158 | 7% | 22
5 | CCOC(=O)c1cccc(OC(=O)c2ccc(NC(=N)N)cc2)c1 [Verbindung 3, 4-Guanidinobenzoesäure-(3-ethoxycarbonylphenyl)-ester Hydrochlorid] |  |  |  |  | 200 nM | 1% |  |  |  | 
